Test results from patent publication US20250122218A1, “MODULATORS OF CYSTIC FIBROSIS TRANSMEMBRANE CONDUCTANCE REGULATOR” (Vertex Pharmaceuticals Incorporated, priority 2022, published 2025).

Target: T1, CFTR in F508del/MF-HBE cells (Homo sapiens, UniProt P13569, DEL508-508)
T1 construct: human bronchial epithelial (HBE) cells derived from CF subjects heterozygous for F508del and a minimal function CFTR mutation; endogenous in cells; host or cells: primary human bronchial epithelial cells from CF subjects (F508del/MF-HBE)
T1 sequence (P13569 with tags, fused parts or gaps DEL508-508): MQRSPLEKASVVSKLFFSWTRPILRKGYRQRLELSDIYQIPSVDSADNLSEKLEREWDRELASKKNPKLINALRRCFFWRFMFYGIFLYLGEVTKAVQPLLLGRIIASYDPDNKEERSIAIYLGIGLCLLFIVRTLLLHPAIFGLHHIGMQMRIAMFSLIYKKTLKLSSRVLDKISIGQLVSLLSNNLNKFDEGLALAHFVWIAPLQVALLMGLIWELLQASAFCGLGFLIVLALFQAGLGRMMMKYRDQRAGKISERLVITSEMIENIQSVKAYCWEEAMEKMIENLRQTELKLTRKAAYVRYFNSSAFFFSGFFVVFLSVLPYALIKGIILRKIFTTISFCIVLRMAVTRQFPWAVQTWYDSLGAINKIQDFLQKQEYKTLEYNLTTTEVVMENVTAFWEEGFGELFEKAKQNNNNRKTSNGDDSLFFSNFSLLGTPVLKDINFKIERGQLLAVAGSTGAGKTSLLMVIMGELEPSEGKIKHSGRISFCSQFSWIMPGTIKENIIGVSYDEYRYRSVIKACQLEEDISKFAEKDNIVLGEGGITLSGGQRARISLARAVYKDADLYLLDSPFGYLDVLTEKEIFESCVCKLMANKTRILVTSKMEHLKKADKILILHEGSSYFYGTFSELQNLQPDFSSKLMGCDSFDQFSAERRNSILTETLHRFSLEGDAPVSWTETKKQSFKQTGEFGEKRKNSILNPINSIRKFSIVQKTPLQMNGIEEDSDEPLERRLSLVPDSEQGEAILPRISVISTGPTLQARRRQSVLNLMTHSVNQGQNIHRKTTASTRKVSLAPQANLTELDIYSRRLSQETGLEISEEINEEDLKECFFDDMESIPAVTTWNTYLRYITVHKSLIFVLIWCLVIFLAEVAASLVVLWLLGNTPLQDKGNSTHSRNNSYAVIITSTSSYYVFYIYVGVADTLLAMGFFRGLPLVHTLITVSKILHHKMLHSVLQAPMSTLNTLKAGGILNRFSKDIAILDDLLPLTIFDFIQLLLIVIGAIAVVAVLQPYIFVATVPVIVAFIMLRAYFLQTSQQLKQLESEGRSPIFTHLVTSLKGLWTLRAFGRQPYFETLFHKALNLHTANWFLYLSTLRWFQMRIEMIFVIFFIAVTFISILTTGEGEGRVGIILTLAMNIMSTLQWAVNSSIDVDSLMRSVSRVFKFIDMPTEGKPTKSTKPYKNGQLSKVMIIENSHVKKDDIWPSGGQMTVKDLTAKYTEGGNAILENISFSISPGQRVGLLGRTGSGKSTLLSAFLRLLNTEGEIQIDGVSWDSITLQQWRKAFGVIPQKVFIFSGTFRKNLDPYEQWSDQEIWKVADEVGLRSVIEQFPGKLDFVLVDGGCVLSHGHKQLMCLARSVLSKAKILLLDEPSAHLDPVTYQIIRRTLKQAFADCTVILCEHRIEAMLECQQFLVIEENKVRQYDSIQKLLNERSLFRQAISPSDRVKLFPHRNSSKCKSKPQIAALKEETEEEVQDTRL
Experiment: Ussing chamber assay of CFTR-mediated short-circuit currents (identification of potentiator compounds)
Format: cell-based
Details: potentiator incubated 18-24 hours at 37° C. in combination with 10 μM corrector, in the presence of 20% human serum, CFTR-mediated ISC
Outline: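 Short-circuit current was measured in Ussing chambers at 37° C, Vhold 0 mV, 30 μM apical amiloride. CFTR current was defined as the forskolin (20 μM) response relative to the current remaining after BPO/GlyH-101/inhibitor 172 (20 μM each). Before recording, cells had 18-24 h exposure to test potentiators with 10 μM corrector compound in 20% human serum.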

Row | EC50 [nM] | SMILES
1 | < 500 | Nc1cc(C(F)(F)F)c2nc1-c1nnc(o1)[C@@](O)(C(F)(F)F)CCCCCN(Cc1cccc(Cl)c1)C2=O [Compound 149, (6R)-17-amino-12-[(3-chlorophenyl)methyl]-6-hydroxy-6,15-bis (trifluoromethyl)-19-oxa-3,4,12,18-tetrazatricyclo [12.3.1.12,5] nonadeca-1(18),2,4,14,1 6-pentaen-13-one]
2 | < 500 | CC1CCCCC[C@](O)(C(F)(F)F)C2=NN=C(O2)c2nc(c(C(F)(F)F)cc2N)C1 (single isomer, unassigned) [Compound 56]
3 | < 500 | CC(C)(c1cccc(CN2CCCCC[C@](O)(C(F)(F)F)C3=NN=C(O3)c3nc(c(C(F)(F)F)cc3N)C2=O)c1)C(F)(F)F [Compound 222, (6R)-17-amino-6-hydroxy-12-[[3-(2,2,2-trifluoro-1,1-dimethyl-ethyl)phenyl]methyl]-6,15-bis(trifluoromethyl)-19-oxa-3,4,12,18-tetrazatricyclo [12.3.1.12,5] nonadeca-1(18),2,4,14,16-pentaen-13-one]
4 | < 500 | Cc1ccc(CN2CCCCC[C@](O)(C(F)(F)F)C3=NN=C(O3)c3nc(c(C(F)(F)F)cc3N)C2=O)cc1 [Compound 134, (6R)-17-amino-6-hydroxy-12-(p-tolylmethyl)-6,15-bis (trifluoromethyl)-19-oxa-3,4,12,18-tetrazatricyclo [12.3.1.12,5] nonadeca-1(18),2,4,14,1 6-pentaen-13-one]
5 | < 500 | Nc1cc(C(F)(F)F)c2nc1-c1nnc(o1)[C@@](O)(C(F)(F)F)CCCCCN(C1CCOCC1)C2=O [Compound 98, (6R)-17-Amino-6-hydroxy-12-tetrahydropyran-4-yl-6,15-bis (trifluoromethyl)-19-oxa-3,4,12,18-tetrazatricyclo [12.3.1.12,5] nonadeca-1(18),2,4,14,1 6-pentaen-13-one]
6 | < 500 | CC(C)N1CCCCCC(O)(C(F)(F)F)C2=NN=C(O2)c2nc(c(C(F)(F)F)cc2N)C1=O (single isomer, unassigned) [Compound 204, 17-amino-6-hydroxy-12-isopropyl-6,15-bis(trifluoromethyl)-19-oxa-3,4,12,18-tetrazatricyclo [12.3.1.12,5] nonadeca-1(18),2,4,14,16-pentaen-13-one]
7 | < 500 | N#CC1CCCCc2ccc(F)c(c2)C(O)(C(F)(F)F)C2=NN=C(O2)c2nc1c(C(F)(F)F)cc2N (stereo not drawn) [Compound 69, 20-Amino-8-fluoro-6-hydroxy-6,18-bis(trifluoromethyl)-23-oxa-3,4,21-triazatetracyclo[15.3.1.12,5.17,11]tricosa-1(21),2,4,7,9,11(22),17,19-octaene-16-carbonitrile]
8 | < 500 | N#CC1CCCCc2cccc(c2)C(O)(C(F)(F)F)C2=NN=C(O2)c2nc1c(C(F)(F)F)cc2N (stereo not drawn) [Compound 64, 20-amino-6-hydroxy-6,18-bis(trifluoromethyl)-23-oxa-3,4,21-triazatetracyclo[15.3.1.12,5.17,11]tricosa-1(21),2,4,7,9,11(22),17,19-octaene-16-carbonitrile]
9 | > 1000 | Nc1cc(C(F)(F)F)c2nc1-c1nnc(o1)[C@](O)(C(F)(F)F)CCCCCNC2=O [Compound 189, (6S)-17-amino-6-hydroxy-6,15-bis(trifluoromethyl)-19-oxa-3,4,12,18-tetrazatricyclo[12.3.1.12,5]nonadeca-1(18),2,4,14,16-pentaen-13-one]
10 | < 500 | CC1(C)CCCC[C@](O)(C(F)(F)F)C2=NN=C(O2)c2nc(c(C(F)(F)F)cc2N)C(=O)N1 [Compound 174, (6R)-17-amino-6-hydroxy-11,11-dimethyl-6,15-bis (trifluoromethyl)-19-oxa-3,4,12,18-tetrazatricyclo [12.3.1.12,5] nonadeca-1(18),2,4,14,1 6-pentaen-13-one]
11 | < 500 | Nc1cc(C(F)(F)F)c2nc1-c1nnc(o1)[C@@](O)(C(F)(F)F)CCCCCN(Cc1ccc(C3(C(F)(F)F)CC3)cn1)C2=O [Compound 214, (6R)-17-amino-6-hydroxy-6,15-bis(trifluoromethyl)-12-[[5-[1-(trifluoromethyl)cyclopropyl]-2-pyridyl]methyl]-19-oxa-3,4,12,18-tetrazatricyclo [12.3.1.12,5] nonadeca-1(18),2,4,14,16-pentaen-13-one]
12 | < 500 | CC(C)(C)Cc1ccc(CN2CCCCC[C@](O)(C(F)(F)F)C3=NN=C(O3)c3nc(c(C(F)(F)F)cc3N)C2=O)cc1 [Compound 170, (6R)-17-amino-12-[[4-(2,2-dimethylpropyl)phenyl]methyl]-6-hydroxy-6,15-bis (trifluoromethyl)-19-oxa-3,4,12,18-tetrazatricyclo [12.3.1.12,5] nonadeca-1(18),2,4,14,1 6-pentaen-13-one]
13 | < 500 | Nc1cc(C(F)(F)F)c2nc1-c1nnc(o1)[C@@](O)(C(F)(F)F)CCCCCN(Cc1ccc(OCC(F)(F)F)cc1)C2=O [Compound 181, (6R)-17-amino-6-hydroxy-12-[[4-(2,2,2-trifluoroethoxy)phenyl]methyl]-6,15-bis (trifluoromethyl)-19-oxa-3,4,12,18-tetrazatricyclo [12.3.1.12,5] nonadeca-1(18),2,4,14,1 6-pentaen-13-one]
14 | < 500 | Nc1cc(C(F)(F)F)c2nc1-c1nnc(o1)[C@@](O)(C(F)(F)F)CCCCCN(C1CC3(CCC3)C1)C2=O [Compound 87, (6R)-17-Amino-6-hydroxy-12-spiro[3.3]heptan-2-yl-6,15-bis(trifluoromethyl)-19-oxa-3,4,12,18-tetrazatricyclo [12.3.1.12,5] nonadeca-1(18),2,4,14,1 6-pentaen-13-one]
15 | < 500 | CC12CC(N3CCCCC[C@](O)(C(F)(F)F)c4nnc(o4)-c4nc(c(C(F)(F)F)cc4N)C3=O)(C1)C2 [Compound 122, (6R)-17-Amino-6-hydroxy-12-(3-methyl-1-bicyclo[1.1.1]pentanyl)-6,15-bis (trifluoromethyl)-19-oxa-3,4,12,18-tetrazatricyclo [12.3.1.12,5] nonadeca-1(18),2,4,14,1 6-pentaen-13-one]
16 | < 500 | COc1cccc(CN2CCCCC[C@](O)(C(F)(F)F)C3=NN=C(O3)c3nc(c(C(F)(F)F)cc3N)C2=O)c1 [Compound 138, (6R)-17-amino-6-hydroxy-12-[(3-methoxyphenyl)methyl]-6,15-bis (trifluorom ethyl)-19-oxa-3,4,12,18-tetrazatricyclo [12.3.1.12,5] nonadeca-1(18),2,4,14,1 6-pentaen-13-one]
17 | < 500 | Nc1cc(C(F)(F)F)c2nc1-c1nnc(o1)[C@@](O)(C(F)(F)F)CCCCCN(Cc1ccc(F)cc1F)C2=O [Compound 145, (6R)-17-amino-12-[(2,4-difluorophenyl)methyl]-6-hydroxy-6,15-bis (trifluoromethyl)-19-oxa-3,4,12,18-tetrazatricyclo [12.3.1.12,5] nonadeca-1(18),2,4,14,1 6-pentaen-13-one]

Row | SMILES | EC50 [nM]
18 | Nc1cc(C(F)(F)F)c2nc1-c1nnc(o1)[C@@](O)(C(F)(F)F)CCCCCN(Cc1ccnc(OC3CCC3)c1)C2=O [Compound 270, (6R)-17-amino-12-[[2-(cyclobutoxy)-4-pyridyl]methyl]-6-hydroxy-6,15-bis(trifluoromethyl)-19-oxa-3,4,12,18-tetrazatricyclo [12.3.1.12,5] nonadeca-1(18),2,4,14,16-pentaen-13-one] | < 500
